Measurements reported in PMC12104861, “Structural and mechanistic basis for the regulation of the chloroplast signal recognition particle by (p)ppGpp” (Febs Letters, 2025).

Legend:
(cp)FtsY‐NG [1] = molecular target: T1, (cp)FtsY‐NG (Arabidopsis thaliana, UniProt O80842); experiment: isothermal titration calorimetry; format: binding
T1 construct: gene CPFTSY
T1 sequence (O80842 65-366): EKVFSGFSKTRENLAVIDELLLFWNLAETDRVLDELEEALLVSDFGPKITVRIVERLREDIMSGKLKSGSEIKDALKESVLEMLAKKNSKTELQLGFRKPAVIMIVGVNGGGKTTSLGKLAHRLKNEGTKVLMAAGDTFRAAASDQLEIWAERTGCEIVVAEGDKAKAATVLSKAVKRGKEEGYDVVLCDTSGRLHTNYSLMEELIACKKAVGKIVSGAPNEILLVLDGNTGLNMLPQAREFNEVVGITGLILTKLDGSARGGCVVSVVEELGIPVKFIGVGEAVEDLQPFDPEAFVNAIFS
From the text: isothermal titration calorimetry on (cp)FtsY‐NG

[2] = molecular target: T2, (cp)SRP54:FtsY‐NG complex (Arabidopsis thaliana, UniProt O80842+P37107); experiment: HPLC GTP hydrolysis assay; format: biochemical; details: 10 μM each protein, 500 μM GTP, pH 7.5, 10 mM Mg(OAc)2, 37 °C
T2 construct: gene FFC; GTPase heterodimer mixed from the two His-tagged proteins: SRP54 residues 79-564 and FtsY NG domain residues 65-366
T2 sequence (P37107 79-564): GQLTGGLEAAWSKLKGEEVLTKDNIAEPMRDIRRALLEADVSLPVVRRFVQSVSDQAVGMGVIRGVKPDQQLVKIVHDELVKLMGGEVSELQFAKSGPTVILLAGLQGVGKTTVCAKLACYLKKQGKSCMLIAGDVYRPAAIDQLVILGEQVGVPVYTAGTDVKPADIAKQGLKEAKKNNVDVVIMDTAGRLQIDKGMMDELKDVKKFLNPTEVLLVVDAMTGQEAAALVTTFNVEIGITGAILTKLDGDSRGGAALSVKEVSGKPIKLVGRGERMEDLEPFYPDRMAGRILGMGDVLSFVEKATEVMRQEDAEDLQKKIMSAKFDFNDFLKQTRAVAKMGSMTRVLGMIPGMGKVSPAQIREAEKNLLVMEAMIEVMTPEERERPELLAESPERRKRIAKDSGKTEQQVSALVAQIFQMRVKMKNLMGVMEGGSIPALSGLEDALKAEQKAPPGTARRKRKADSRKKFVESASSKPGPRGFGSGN
T2 sequence (O80842 65-366): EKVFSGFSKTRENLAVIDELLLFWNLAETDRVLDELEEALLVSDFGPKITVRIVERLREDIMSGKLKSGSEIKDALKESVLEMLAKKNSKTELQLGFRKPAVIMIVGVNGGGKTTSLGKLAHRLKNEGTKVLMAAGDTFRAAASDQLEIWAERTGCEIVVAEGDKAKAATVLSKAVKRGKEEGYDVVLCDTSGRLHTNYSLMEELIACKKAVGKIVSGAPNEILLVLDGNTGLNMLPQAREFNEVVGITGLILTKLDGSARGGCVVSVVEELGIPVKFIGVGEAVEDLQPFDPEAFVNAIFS

(cp)SRP54 = molecular target: T3, (cp)SRP54 (Arabidopsis thaliana, UniProt P37107); experiment: isothermal titration calorimetry; format: binding
T3 construct: gene FFC; residues 79-564 (transit peptide removed), NG and M domains, hexa-histidine tag kept, expressed in E. coli BL21(DE3) Rosetta
T3 sequence (P37107 79-564): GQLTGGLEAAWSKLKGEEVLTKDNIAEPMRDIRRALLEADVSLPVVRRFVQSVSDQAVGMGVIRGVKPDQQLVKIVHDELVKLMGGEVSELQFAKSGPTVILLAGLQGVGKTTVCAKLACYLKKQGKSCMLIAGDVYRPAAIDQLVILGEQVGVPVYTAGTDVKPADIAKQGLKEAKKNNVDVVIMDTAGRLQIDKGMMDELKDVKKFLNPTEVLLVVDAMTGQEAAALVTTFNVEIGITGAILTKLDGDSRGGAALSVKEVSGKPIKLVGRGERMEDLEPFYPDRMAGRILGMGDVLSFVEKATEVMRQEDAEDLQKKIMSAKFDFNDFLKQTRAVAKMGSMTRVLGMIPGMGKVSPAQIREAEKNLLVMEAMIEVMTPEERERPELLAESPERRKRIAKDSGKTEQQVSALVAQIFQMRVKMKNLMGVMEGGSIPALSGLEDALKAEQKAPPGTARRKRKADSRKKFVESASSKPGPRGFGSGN
From the text: isothermal titration calorimetry on (cp)SRP54

(cp)FtsY‐NG [3] = molecular target: T1, (cp)FtsY‐NG; experiment: X-ray crystal structure, […] Å; details: Mg2+; canonical guanosine nucleotide-binding site; 100 mM Tris pH 8.5, 25% PEG1000
[4] = molecular target: T2, (cp)SRP54:FtsY‐NG complex; experiment: HPLC GTP hydrolysis assay; format: biochemical; details: read-out: residual GTPase activity (% GTP hydrolysed) at 10 mM, 30 min
[5] = molecular target: T2, (cp)SRP54:FtsY‐NG complex; experiment: analytical size-exclusion chromatography of complex formation; format: binding; details: nonhydrolysable GTP analogue promotes the heterodimer; 20 mM HEPES-K pH 7.5, 20 mM MgCl2
[6] = molecular target: T4, chloroplast signal recognition particle 54 kDa protein, (cp)SRP54 (Arabidopsis thaliana, UniProt P37107 79-564); experiment: SEC; analytical SEC, Superdex 200 Increase 10/300 GL; 100 uM of each protein in buffer C (20 mM HEPES-K pH 7.5, 200 mM NaCl, 20 mM KCl, 20 mM MgCl2) with increasing GppNHp; 30 min at room temperature; also 0.5 mM GppNHp with increasing ppGpp or pppGpp, which disrupt the complex; details: both partners purified
T4 construct: Arabidopsis thaliana (cp)SRP54, UniProt P37107, residues 79-564; the methods give residues 79-564; source: E. coli BL21 (DE3) Rosetta, purified (HisTrap FF, EDTA incubation, SEC Superdex 200)
T4 sequence (looked up): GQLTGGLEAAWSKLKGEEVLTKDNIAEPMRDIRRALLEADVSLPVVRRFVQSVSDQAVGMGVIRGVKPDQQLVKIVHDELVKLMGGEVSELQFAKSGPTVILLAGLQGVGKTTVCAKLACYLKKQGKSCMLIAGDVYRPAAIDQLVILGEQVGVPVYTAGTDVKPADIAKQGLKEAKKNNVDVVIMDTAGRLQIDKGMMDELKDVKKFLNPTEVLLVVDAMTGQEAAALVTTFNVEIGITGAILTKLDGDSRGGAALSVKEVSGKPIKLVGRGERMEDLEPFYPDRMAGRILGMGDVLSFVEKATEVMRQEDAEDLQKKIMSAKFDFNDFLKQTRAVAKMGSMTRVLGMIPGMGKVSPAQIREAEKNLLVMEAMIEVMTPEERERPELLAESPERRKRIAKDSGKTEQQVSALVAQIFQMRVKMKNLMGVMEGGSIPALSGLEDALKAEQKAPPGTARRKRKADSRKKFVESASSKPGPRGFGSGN

| Molecule | Kd ((cp)FtsY‐NG [1]) [µM] | Kd ((cp)SRP54) [µM] | remaining activity at 10000 µM [4] [%] | also measured |
| --- | --- | --- | --- | --- |
| Nc1nc2c(ncn2[C@@H]2O[C@H](COP(=O)(O)OP(=O)(O)OP(=O)(O)O)[C@@H](O)[C@H]2O)c(=O)[nH]1 [GTP] | 11.9 ± 2.44 | 51.8 ± 3.54 | – | HPLC GTP hydrolysis assay [2]: significantly enhanced when in complex, hydrolysing nearly all available GTP |
| Nc1nc2c(ncn2[C@@H]2O[C@H](COP(=O)(O)OP(=O)(O)O)[C@@H](OP(=O)(O)OP(=O)(O)O)[C@H]2O)c(=O)[nH]1 [ppGpp] | 7.36 ± 1.46 | 32.5 ± 5.38 | ~20 | X-ray crystal structure, 1.99 Å ((cp)FtsY‐NG [3]): solve the crystal structure of the truncated form of (cp)FtsY from A. thaliana |
| Nc1nc2c(ncn2[C@@H]2O[C@H](COP(=O)(O)OP(=O)(O)OP(=O)(O)O)[C@@H](OP(=O)(O)OP(=O)(O)O)[C@H]2O)c(=O)[nH]1 [pppGpp] | 27.6 ± 3.64 | 47.8 ± 3.52 | ~20 | – |
| Nc1nc2c(ncn2[C@@H]2O[C@H](COP(=O)(O)OP(=O)(O)NP(=O)(O)O)[C@@H](O)[C@H]2O)c(=O)[nH]1 [GppNHp] | – | – | – | analytical size-exclusion chromatography of complex formation [5]: visualized the complex between (cp)SRP54 and (cp)FtsY‐NG at increasing concentrations of GppNHp |
| Nc1nc2c(ncn2[C@@H]2O[C@H](COP(=O)(O)OP(=O)(O)O)[C@@H](O)[C@H]2O)c(=O)[nH]1 [GDP] | 7.71 ± 0.4 | 23.5 ± 2.29 | – | – |
| NG domain of the chloroplast SRP receptor (cp)FtsY, (cp)FtsY-NG (domain or fragment, Arabidopsis thaliana, UniProt O80842 65-366, looked up, source: E. coli BL21 (DE3) Rosetta, purified (HisTrap FF, EDTA incubation, SEC Superdex 200)) EKVFSGFSKTRENLAVIDELLLFWNLAETDRVLDELEEALLVSDFGPKITVRIVERLREDIMSGKLKSGSEIKDALKESVLEMLAKKNSKTELQLGFRKPAVIMIVGVNGGGKTTSLGKLAHRLKNEGTKVLMAAGDTFRAAASDQLEIWAERTGCEIVVAEGDKAKAATVLSKAVKRGKEEGYDVVLCDTSGRLHTNYSLMEELIACKKAVGKIVSGAPNEILLVLDGNTGLNMLPQAREFNEVVGITGLILTKLDGSARGGCVVSVVEELGIPVKFIGVGEAVEDLQPFDPEAFVNAIFS | – | – | – | binding result [6]: binds |
